Holding throughout (experiment): Test B pre-/postemergence plant response
Common to all, as to assay type: in vivo

Experiment [1] concerns wheat (Triticum aestivum). The following applies: Triticum aestivum, 240 h, read-out: Plant response rating, Wheat; for plant injury at 125 g/ha: 125 g ai/ha; for plant injury at 500 g/ha: 500 g ai/ha. In a few lines: (§1)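 Ratings reflect visual injury versus untreated controls, from 0 for no effect to 100 for complete control, assessed roughly 10 days after treatment. Formulation: non-phytotoxic solvent mix with surfactant; pre- and postemergence sprays on plants grown in loam soil and sand.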

The test system of experiment [2] is giant foxtail (Setaria faberii). Conditions: Setaria faberi, 240 h, read-out: Plant response rating, Foxtail, Giant; for pest or weed control at 125 g/ha: 125 g ai/ha; for pest or weed control at 500 g/ha: 500 g ai/ha. In a few lines: as §1
The subject of experiment [3] is barnyardgrass (Echinochloa crus-galli). The following applies: Echinochloa crus-galli, 240 h, read-out: Plant response rating, Barnyardgrass; for pest or weed control at 125 g/ha: 125 g ai/ha; for pest or weed control at 500 g/ha: 500 g ai/ha. A digest of the protocol:
as §1

The test system of the next experiment is corn (Zea mays). The following applies: Zea mays, 240 h; for Corn plant response rating (crop injury, 0 = no effect, 100 = complete kill) at 125 g/ha: 125 g ai/ha; for Corn plant response rating (crop injury, 0 = no effect, 100 = complete kill) at 500 g/ha: 500 g ai/ha. In a few lines: as §1
Experiment [4] concerns pigweed (Amaranthus retroflexus). Conditions: Amaranthus retroflexus, 240 h, read-out: Plant response rating, Pigweed; for pest or weed control at 125 g/ha: 125 g ai/ha; for pest or weed control at 500 g/ha: 500 g ai/ha. In a few lines:
as §1

[5] abbreviates: post-emergence, postemergence, 0 to 100 scale, 0 no effect, 100 complete control.
Where [6] appears, read: post-emergence, Postemergence, 0 to 100 scale (0 no effect, 100 complete control).
[7] abbreviates: pre-emergence, Preemergence, 0 to 100 scale where 0 is no effect and 100 is complete control.
Setting [8] is: pre-emergence, Preemergence, 0 to 100 scale (0 no effect, 100 complete control).

Where two headings read alike, the source gives them in different places.

Take `Cc1ccc(Oc2ncc(Cl)cn2)c(-c2ccnc(C(F)(F)F)c2)c1` [Compound 24, 5-chloro-2-[4-methyl-2-[2-(trifluoromethyl)-4-pyridinyl]phenoxy]pyrimidine]: the plant injury at 125 g/ha in experiment [1] (setting [5]) and in experiment [1] (setting [7]) was 0% in each case. Moreover, the plant injury at 500 g/ha in experiment [1] (setting [6]) and in experiment [1] (setting [8]) was 0% in each case. Moreover, the pest or weed control at 125 g/ha in experiment [2] (setting [5]) worked out at 30%; in experiment [2] (setting [7]), 20%; in experiment [3] (setting [5]), 0%; in experiment [3] (setting [7]), 10%; in experiment [4] (setting [5]), 20%; in experiment [4] (setting [7]), 0%. Also, the pest or weed control at 500 g/ha in experiment [2] (setting [6]) is 90%; in experiment [2] (setting [8]), 90%; in experiment [3] (setting [6]), 60%; in experiment [3] (setting [8]), 80%; in experiment [4] (setting [6]) it was 40%; in experiment [4] (setting [8]), 40%. Moreover, the Corn plant response rating (crop injury, 0 = no effect, 100 = complete kill) at 125 g/ha with corn (Zea mays) (setting [5]) and in the experiment on corn (Zea mays) (setting [7]) was 0% each time. Also, the Corn plant response rating (crop injury, 0 = no effect, 100 = complete kill) at 500 g/ha with corn (Zea mays) (setting [6]) and in the experiment on corn (Zea mays) (setting [8]) was 40% each time.
`Cc1ccc(Oc2ncc(Cl)cn2)c(-c2ccc(C(F)(F)F)nc2)c1` [Compound 22, 5-chloro-2-[4-methyl-2-[6-(trifluoromethyl)-3-pyridinyl]phenoxy]pyrimidine]: the plant injury at 125 g/ha in experiment [1] (setting [5]) and in experiment [1] (setting [7]) was 0% in each case. The plant injury at 500 g/ha in experiment [1] (setting [6]) and in experiment [1] (setting [8]) was 0% each time. Further, the pest or weed control at 125 g/ha in experiment [2] (setting [5]), in experiment [2] (setting [7]), in experiment [3] (setting [5]), in experiment [3] (setting [7]), in experiment [4] (setting [5]) and in experiment [4] (setting [7]) was 0% each time. In addition, the pest or weed control at 500 g/ha in experiment [2] (setting [6]), in experiment [2] (setting [8]), in experiment [3] (setting [6]), in experiment [3] (setting [8]), in experiment [4] (setting [6]) and in experiment [4] (setting [8]) was 0% each time. For the same molecule, the Corn plant response rating (crop injury, 0 = no effect, 100 = complete kill) at 125 g/ha with corn (Zea mays) (setting [5]) and in the experiment on corn (Zea mays) (setting [7]) was 0% each time. The Corn plant response rating (crop injury, 0 = no effect, 100 = complete kill) at 500 g/ha in the experiment on corn (Zea mays) (setting [6]) and in the experiment on corn (Zea mays) (setting [8]) was 0% throughout.
With `FC(F)(F)c1ccc(-c2ccccc2Oc2ncc(Cl)cn2)nc1` [Compound 27, 5-chloro-2-[2-[5-(trifluoromethyl)-2-pyridinyl]phenoxy]pyrimidine], the plant injury at 125 g/ha in experiment [1] (setting [5]) and in experiment [1] (setting [7]) was 0% each time. The plant injury at 500 g/ha in experiment [1] (setting [6]) and in experiment [1] (setting [7]) was 0% throughout. Besides, the pest or weed control at 125 g/ha came out at 20% in experiment [2] (setting [5]); 60% in experiment [2] (setting [7]); 20% in experiment [3] (setting [5]); 10% in experiment [3] (setting [7]); 50% in experiment [4] (setting [5]); 80% in experiment [4] (setting [7]). Further, the pest or weed control at 500 g/ha stood at 70% in experiment [2] (setting [6]); 90% in experiment [2] (setting [7]); 50% in experiment [3] (setting [6]); 80% in experiment [3] (setting [7]); 100% in experiment [4] (setting [6]); 100% in experiment [4] (setting [7]). For the same molecule, the Corn plant response rating (crop injury, 0 = no effect, 100 = complete kill) at 125 g/ha with corn (Zea mays) (setting [5]) and in the experiment with corn (Zea mays) (setting [7]) was 0% throughout. Also, the values for the Corn plant response rating (crop injury, 0 = no effect, 100 = complete kill) at 500 g/ha in the experiment on corn (Zea mays) (setting [6]) and with corn (Zea mays) (setting [7]) were 30% and 0%, respectively.

(Values after patent US10131652B2, “Pyrimidinyloxy benzene derivatives as herbicides” (E. I. DU PONT DE NEMOURS AND COMPANY, priority 2014, dated 2018).)
